One experiment has as its target NDM-1 (Klebsiella pneumoniae, UniProt C7C422). In words: biochemical. The experiment is classed as biochemical. Particulars: read-out: NDM-1 IC50.
A further experiment concerns the target IMP-1 (Serratia marcescens, UniProt P52699). Description: biochemical. The experiment is classed as biochemical.
The next experiment has as its target VIM-1 (Pseudomonas aeruginosa (strain ATCC 15692 / DSM 22644 / CIP 104116 / JCM 14847 / LMG 12228 / 1C / PRS 101 / PAO1), UniProt A0A0F7KYQ8). In words: Enzyme activity: determination of IC50, fluorescence assay with CCF2-FA substrate (VIM-1). The experiment is classed as biochemical.
The test system of experiment [1] is Escherichia coli expressing NDM-1 (CLB30005). Description: Antibiotic potentiation activity: synergistic concentration (MITC95) with imipenem, OD600 growth. The experiment is classed as cell-based. Particulars: for Escherichia coli expressing NDM-1 (CLB 30005) MITC95: concentration giving 95% inhibition of bacterial growth; for Escherichia coli MITC95: Escherichia coli expressing NDM-1 (CLB30005), 95% growth inhibition. In outline: (§1)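 Overnight colonies (35 °C) were suspended in saline, diluted 1:100 into 1.1× CAMHB, and exposed to test compound with imipenem at 4 μg/ml (optionally 1 μg/ml) in assay. After 22–24 h at 35 °C, growth was read by absorbance.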

The subject of experiment [2] is Klebsiella pneumoniae expressing VIM-1 (IHMA599644). The description is as above. The experiment is classed as cell-based. Particulars: for Klebsiella pneumoniae expressing VIM-1 (IHMA 599644) MITC95: concentration giving 95% inhibition of bacterial growth; for Klebsiella pneumoniae MITC95: Klebsiella pneumoniae expressing VIM-1 (IHMA599644), 95% growth inhibition. In outline:
as §1

The test system of experiment [3] is Serratia marcescens expressing IMP-1 (CL5741). The experiment is described as above. Particulars: for Serratia marcescens expressing IMP-1 (CL5741) MITC95: concentration giving 95% inhibition of bacterial growth; for Serratia marcescens MITC95: Serratia marcescens expressing IMP-1 (CL5741), 95% growth inhibition. The experiment is classed as cell-based. In outline: as §1

Setting [4] is: fluorescence assay with CCF2-FA substrate.
[5] abbreviates: fluorescence assay with CCF2-FA substrate, read-out: IMP-1 IC50.
Setting [6] is: fluorescence assay with CCF2-FA substrate, read-out: VIM-1 IC50.
The mark [7] stands for this setting: VIM-1 IC50, fluorescence assay with CCF2-FA substrate.
The mark [8] stands for this setting: NDM-1 enzyme, CCF2-FA fluorescence assay.
Where [9] appears, read: IMP-1 enzyme, CCF2-FA fluorescence assay, read-out: IMP-1 IC50.
Setting [10] is: VIM-1 IC50, VIM-1 enzyme, CCF2-FA fluorescence assay.
Setting [11] is: VIM-1 enzyme, CCF2-FA fluorescence assay, read-out: VIM-1 IC50.

pIC50: −log10 of the molar value. Read-outs that look alike come from different tables or passages of the source. Some results are limits rather than exact numbers.

The pIC50 is −log10 of the IC50, conventionally taken in molar units.

Chain of IMP-1 (P52699 whole entry, looked up): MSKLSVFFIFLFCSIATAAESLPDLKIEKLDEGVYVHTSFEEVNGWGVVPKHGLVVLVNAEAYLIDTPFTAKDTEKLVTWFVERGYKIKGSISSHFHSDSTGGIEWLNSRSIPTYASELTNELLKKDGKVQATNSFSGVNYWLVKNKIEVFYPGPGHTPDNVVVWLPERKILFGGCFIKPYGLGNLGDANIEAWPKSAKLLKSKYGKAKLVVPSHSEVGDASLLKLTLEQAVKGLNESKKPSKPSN
Chain of NDM-1 (C7C422 whole entry, looked up, species assumed): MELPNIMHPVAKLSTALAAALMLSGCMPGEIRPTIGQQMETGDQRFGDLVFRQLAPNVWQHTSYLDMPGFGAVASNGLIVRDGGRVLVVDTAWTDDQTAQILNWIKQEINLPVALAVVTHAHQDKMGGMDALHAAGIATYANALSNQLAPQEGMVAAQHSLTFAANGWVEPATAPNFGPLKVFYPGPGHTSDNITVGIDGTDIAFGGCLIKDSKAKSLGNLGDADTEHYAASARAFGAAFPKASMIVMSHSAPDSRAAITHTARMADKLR

As to `NS(=O)(=O)c1cccc(-c2ccc(S(=O)(=O)NC3CC3)cc2)c1-c1nn[nH]n1` [Example 60, N~4~′-cyclopropyl-2-(2H-tetrazol-5-yl)biphenyl-3,4′-disulfonamide], the negative logarithm of the IC50 (pIC50) on NDM-1 (setting [4]) is 8.50; at IMP-1 (setting [5]), 7.78; at VIM-1 (setting [6]), 7.56. For the same molecule, the “Escherichia coli expressing NDM-1 (CLB 30005) MITC95” value in experiment [1] amounted to 3.906 µM. The “Klebsiella pneumoniae expressing VIM-1 (IHMA 599644) MITC95” value in experiment [2] came to 75 µM. Moreover, the “Serratia marcescens expressing IMP-1 (CL5741) MITC95” value in experiment [3] was 4.688 µM.
Consider `NS(=O)(=O)c1nccc(-c2ccc(N3CCOCC3)nc2)c1-c1nn[nH]n1` [Example 208, 6-morpholino-3′-(2H-tetrazol-5-yl)-[3,4′-bipyridine]-2′-sulfonamide], for which the pIC50 was 7.02 on NDM-1 (setting [4]), 6.23 at IMP-1 (setting [5]) and 6.25 at VIM-1 (setting [7]). For the same molecule, the “Escherichia coli expressing NDM-1 (CLB 30005) MITC95” value in experiment [1] was 3.646 µM. The “Klebsiella pneumoniae expressing VIM-1 (IHMA 599644) MITC95” value in experiment [2] was over 200 µM. Also, the “Serratia marcescens expressing IMP-1 (CL5741) MITC95” value in experiment [3] was 37.5 µM.
Regarding `NS(=O)(=O)c1cccc(-c2ccc(C3CCNC3=O)cc2)c1-c1nnn[nH]1` (stereo not drawn) [Example 27, 4′-(2-oxopyrrolidin-3-yl)-2-(1H-tetrazol-5-yl)biphenyl-3-sulfonamide], the pIC50 was 8.65 on NDM-1 (setting [4]), 7.88 at IMP-1 (setting [5]) and 7.11 on VIM-1 (setting [6]). For the same molecule, the “Escherichia coli expressing NDM-1 (CLB 30005) MITC95” value in experiment [1] was determined as 3.125 µM. In experiment [2], the “Klebsiella pneumoniae expressing VIM-1 (IHMA 599644) MITC95” value worked out at 200 µM. The “Serratia marcescens expressing IMP-1 (CL5741) MITC95” value in experiment [3] was found to be 3.125 µM.
Consider `N#Cc1ccc(-c2cccc(S(N)(=O)=O)c2-c2nnn[nH]2)cc1` [Example 308, 4′-cyano-2-(1H-tetrazol-5-yl)-[1,1′-biphenyl]-3-sulfonamide], for which the pIC50 on NDM-1 (setting [8]) was 7.95; at IMP-1 (setting [9]), 6.72; at VIM-1 (setting [10]), 6.78. Further, the “Escherichia coli MITC95” value in experiment [1] turned out to be 2.344 µM. The “Klebsiella pneumoniae MITC95” value in experiment [2] came to 75 µM. The “Serratia marcescens MITC95” value in experiment [3] was found to be 9.375 µM.
For the molecule `C[C@H]1NC(=O)O[C@H]1c1ccc(-c2ccnc(S(N)(=O)=O)c2-c2nnn[nH]2)cc1` (racemic) [Example 191, (±)-4-(4-(cis-4-Methyl-2-oxooxazolidin-5-yl)phenyl)-3-(1H-tetrazol-5-yl)pyridine-2-sulfonamide], the figures for the pIC50 at NDM-1 (setting [4]), against IMP-1 and on VIM-1 (setting [6]) were 8.11, 7.12 and 7.34, respectively. For the same molecule, in experiment [1], the “Escherichia coli expressing NDM-1 (CLB 30005) MITC95” value turned out to be 9.375 µM. Also, the “Klebsiella pneumoniae expressing VIM-1 (IHMA 599644) MITC95” value in experiment [2] is 75 µM. Besides, in experiment [3], the “Serratia marcescens expressing IMP-1 (CL5741) MITC95” value is 15.63 µM.
Take `Cc1nccn1-c1nc(-c2cccc(S(N)(=O)=O)c2-c2nn[nH]n2)cs1` [Example 102, 3-[2-(2-methyl-1H-imidazol-1-yl)-1,3-thiazol-4-yl]-2-(2H-tetrazol-5-yl)benzenesulfonamide]: the pIC50 is 6.89 on NDM-1 (setting [4]), 6.76 on IMP-1 (setting [5]) and 6.28 on VIM-1 (setting [6]). Besides, in experiment [1], the “Escherichia coli expressing NDM-1 (CLB 30005) MITC95” value turned out to be 9.375 µM. Besides, in experiment [2], the “Klebsiella pneumoniae expressing VIM-1 (IHMA 599644) MITC95” value was over 200 µM. Also, the “Serratia marcescens expressing IMP-1 (CL5741) MITC95” value in experiment [3] is 53.13 µM.
For `NS(=O)(=O)c1c(Br)ccc(-c2ccc(C3CCNCC3)cc2)c1-c1nnn[nH]1` [Example 259, 4-Bromo-4′-(piperidin-4-yl)-2-(1H-tetrazol-5-yl)-[1,1′-biphenyl]-3-sulfonamide], the pIC50 at NDM-1 (setting [8]) was 7.96; on IMP-1 (setting [9]), 8.00; on VIM-1 (setting [11]) it was 8.51. In addition, the “Escherichia coli MITC95” value in experiment [1] was 1.584 µM. In addition, the “Klebsiella pneumoniae MITC95” value in experiment [2] is 3.125 µM. For the same molecule, the “Serratia marcescens MITC95” value in experiment [3] is 1 µM.
As for `NS(=O)(=O)c1cccc(-c2csc3ccccc23)c1-c1nn[nH]n1` [Example 96, 3-(1-benzothiophen-3-yl)-2-(2H-tetrazol-5-yl)benzenesulfonamide], the negative-log IC50 (pIC50) at NDM-1 (setting [4]) is 8.88; on IMP-1 (setting [5]), 6.96; on VIM-1 (setting [6]) it was 8.45. For the same molecule, in experiment [1], the “Escherichia coli expressing NDM-1 (CLB 30005) MITC95” value was 1.758 µM. In addition, the “Klebsiella pneumoniae expressing VIM-1 (IHMA 599644) MITC95” value in experiment [2] amounted to 25 µM. In addition, the “Serratia marcescens expressing IMP-1 (CL5741) MITC95” value in experiment [3] was found to be 15.63 µM.
`NC(=O)c1ccc(-c2ccnc(S(N)(=O)=O)c2-c2nnn[nH]2)cc1` [Example 184, 4-(2-Sulfamoyl-3-(1H-tetrazol-5-yl)pyridin-4-yl)benzamide]: the pIC50 is 7.17 at NDM-1 (setting [4]), 6.22 on IMP-1 (setting [5]) and 6.79 on VIM-1 (setting [6]). In experiment [1], the “Escherichia coli expressing NDM-1 (CLB 30005) MITC95” value is 0.5859 µM. Moreover, the “Klebsiella pneumoniae expressing VIM-1 (IHMA 599644) MITC95” value in experiment [2] came to 25 µM. The “Serratia marcescens expressing IMP-1 (CL5741) MITC95” value in experiment [3] was determined as 37.5 µM.
Turning to `NS(=O)(=O)c1cccc(C#CCC2CNCCO2)c1-c1nn[nH]n1` (stereo not drawn) [Example 145, 3-(3-morpholin-2-ylprop-1-yn-1-yl)-2-(2H-tetrazol-5-yl)benzenesulfonamide], the pIC50 on NDM-1 (setting [4]) is 6.72; on IMP-1 (setting [5]) it was 5.62; on VIM-1 (setting [6]) it was 5.19. Also, the “Escherichia coli expressing NDM-1 (CLB 30005) MITC95” value in experiment [1] was determined as 0.7813 µM. The “Klebsiella pneumoniae expressing VIM-1 (IHMA 599644) MITC95” value in experiment [2] was over 200 µM. The “Serratia marcescens expressing IMP-1 (CL5741) MITC95” value in experiment [3] was 75 µM.
As for `NS(=O)(=O)c1cccc(-c2ccc(N3CCCCC3)cc2)c1-c1nn[nH]n1` [Example 18, 4′-piperidin-1-yl-2-(2H-tetrazol-5-yl)biphenyl-3-sulfonamide], the pIC50 at NDM-1 (setting [4]) was 8.69; on IMP-1 (setting [5]) it was 7.63; on VIM-1 (setting [7]), 6.49. The “Escherichia coli expressing NDM-1 (CLB 30005) MITC95” value in experiment [1] turned out to be 3.906 µM. Besides, the “Klebsiella pneumoniae expressing VIM-1 (IHMA 599644) MITC95” value in experiment [2] is over 200 µM. The “Serratia marcescens expressing IMP-1 (CL5741) MITC95” value in experiment [3] was 103.1 µM.
In the case of `NS(=O)(=O)c1nccc(-c2cnc3[nH]ccc3c2)c1-c1nn[nH]n1` [Example 212, 4-(1H-pyrrolo[2,3-b]pyridin-5-yl)-3-(2H-tetrazol-5-yl)pyridine-2-sulfonamide], the pIC50 was 8.10 at NDM-1 (setting [4]), 6.38 at IMP-1 (setting [5]) and 7.88 at VIM-1 (setting [6]). In addition, in experiment [1], the “Escherichia coli expressing NDM-1 (CLB 30005) MITC95” value was 0.3906 µM. Further, the “Klebsiella pneumoniae expressing VIM-1 (IHMA 599644) MITC95” value in experiment [2] is 3.125 µM. Further, the “Serratia marcescens expressing IMP-1 (CL5741) MITC95” value in experiment [3] amounted to 18.75 µM.
With `Cc1ccccc1-c1cccc(S(N)(=O)=O)c1-c1nn[nH]n1` [Example 325, 2′-methyl-2-(2H-tetrazol-5-yl)-[1,1′-biphenyl]-3-sulfonamide], the pIC50 on NDM-1 (setting [8]) was 8.89; on IMP-1 (setting [9]) it was 6.64; on VIM-1 (setting [11]) it was 7.88. The “Escherichia coli MITC95” value in experiment [1] was 3.125 µM. In experiment [2], the “Klebsiella pneumoniae MITC95” value was determined as 37.5 µM. For the same molecule, in experiment [3], the “Serratia marcescens MITC95” value was 25 µM.
For the molecule `CN(C)Cc1ccc(-c2cccc(S(N)(=O)=O)c2-c2nnn[nH]2)cc1` [Example 327, 4′-((Dimethylamino)methyl)-2-(1H-tetrazol-5-yl)-[1,1′-biphenyl]-3-sulfonamide], the negative logarithm of the IC50 (pIC50) at NDM-1 (setting [8]) was 7.42; on IMP-1 (setting [9]), 6.27; against VIM-1 (setting [10]), 6.67. Moreover, in experiment [1], the “Escherichia coli MITC95” value is 0.7813 µM. Moreover, the “Klebsiella pneumoniae MITC95” value in experiment [2] is 100 µM. In experiment [3], the “Serratia marcescens MITC95” value is 12.5 µM.
